What was measured:
TphKS.Nap = test system: T1, TphKS.Nap; assay: uptake-coupled TphR-sfGFP biosensor dose response in P. putida KT2440; type: cell-based, Sphingobium naphthae; conditions: whole-cell transporter-biosensor EC50 (reflects transporter plus TphR sensor); LB, 16 h, 0.005-1 mM TPA
T1 construct: gene tphK; full-length transporter expressed in Pseudomonas putida KT2440 with TphR-sfGFP reporter plasmid
Text: uptake-coupled TphR-sfGFP biosensor dose response in P. putida KT2440 on TphKS.Nap

TphKR.Pyr = test system: T2, TphKR.Pyr; assay: as above; type: cell-based, Rhodococcus pyridinivorans; conditions: whole-cell transporter-biosensor EC50 (reflects transporter plus TphR sensor); LB, 16 h, 0.005-1 mM TPA
T2 construct: gene tphK; full-length transporter expressed in Pseudomonas putida KT2440 with TphR-sfGFP reporter plasmid
Text: uptake-coupled TphR-sfGFP biosensor dose response in P. putida KT2440 on TphKR.Pyr

TphKS.Hor = test system: T3, TphKS.Hor; assay: as above; type: cell-based, Saccharopolyspora hordei; conditions: whole-cell transporter-biosensor EC50 (reflects transporter plus TphR sensor); LB, 16 h, 0.005-1 mM TPA
T3 construct: gene tphK; full-length transporter expressed in Pseudomonas putida KT2440 with TphR-sfGFP reporter plasmid
Text: uptake-coupled TphR-sfGFP biosensor dose response in P. putida KT2440 on TphKS.Hor

TphKP.Um = test system: T4, TphKP.Um; assay: as above; type: cell-based, Pseudomonas umsongensis; conditions: whole-cell transporter-biosensor EC50 (reflects transporter plus TphR sensor); LB, 16 h, 0.005-1 mM TPA
T4 construct: gene tphK; full-length transporter expressed in Pseudomonas putida KT2440 with TphR-sfGFP reporter plasmid
Text: uptake-coupled TphR-sfGFP biosensor dose response in P. putida KT2440 on TphKP.Um

TphKR.Op = molecular target: T5, TphKR.Op (Rhodococcus opacus, UniProt A0A1B1KG70); assay: as above; type: cell-based
T5 construct: gene tpaK; full-length transporter expressed in Pseudomonas putida KT2440 with TphR-sfGFP reporter plasmid
T5 sequence (A0A1B1KG70 1-459): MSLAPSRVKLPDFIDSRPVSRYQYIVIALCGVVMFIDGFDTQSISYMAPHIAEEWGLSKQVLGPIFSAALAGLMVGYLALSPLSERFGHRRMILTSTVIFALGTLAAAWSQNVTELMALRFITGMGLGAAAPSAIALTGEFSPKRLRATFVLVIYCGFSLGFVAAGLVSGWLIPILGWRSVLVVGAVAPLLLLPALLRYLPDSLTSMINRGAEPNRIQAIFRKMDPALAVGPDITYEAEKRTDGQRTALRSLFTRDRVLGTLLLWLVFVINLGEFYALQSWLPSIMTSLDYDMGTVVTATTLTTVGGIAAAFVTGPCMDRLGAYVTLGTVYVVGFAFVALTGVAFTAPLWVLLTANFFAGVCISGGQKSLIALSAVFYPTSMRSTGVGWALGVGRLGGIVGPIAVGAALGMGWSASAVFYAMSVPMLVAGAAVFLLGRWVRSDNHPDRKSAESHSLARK
Text: uptake-coupled TphR-sfGFP biosensor dose response in P. putida KT2440 on TphKR.Op

TphKP.Man = molecular target: T6, TphKP.Man (Pseudomonas mandelii, UniProt A0A024E7Y9); assay: as above; type: cell-based
T6 construct: gene tpaK; full-length transporter expressed in Pseudomonas putida KT2440 with TphR-sfGFP reporter plasmid
Text: uptake-coupled TphR-sfGFP biosensor dose response in P. putida KT2440 on TphKP.Man

TphKB.Pac = test system: T7, TphKB.Pac; assay: as above; type: cell-based, Bradyrhizobium pachyrhizi; conditions: whole-cell transporter-biosensor EC50 (reflects transporter plus TphR sensor); LB, 16 h, 0.005-1 mM TPA
T7 construct: gene tphK; full-length transporter expressed in Pseudomonas putida KT2440 with TphR-sfGFP reporter plasmid
Text: uptake-coupled TphR-sfGFP biosensor dose response in P. putida KT2440 on TphKB.Pac

PcaKP.Put = molecular target: T8, PcaKP.Put (Pseudomonas putida, UniProt Q51955); assay: uptake-coupled PcaV-sfGFP biosensor dose response in P. putida KT2440 delta-pcaK; type: cell-based
T8 construct: gene pcaK; full-length transporter expressed in Pseudomonas putida KT2440 delta-pcaK with PcaV-sfGFP reporter plasmid
T8 sequence (Q51955 1-448): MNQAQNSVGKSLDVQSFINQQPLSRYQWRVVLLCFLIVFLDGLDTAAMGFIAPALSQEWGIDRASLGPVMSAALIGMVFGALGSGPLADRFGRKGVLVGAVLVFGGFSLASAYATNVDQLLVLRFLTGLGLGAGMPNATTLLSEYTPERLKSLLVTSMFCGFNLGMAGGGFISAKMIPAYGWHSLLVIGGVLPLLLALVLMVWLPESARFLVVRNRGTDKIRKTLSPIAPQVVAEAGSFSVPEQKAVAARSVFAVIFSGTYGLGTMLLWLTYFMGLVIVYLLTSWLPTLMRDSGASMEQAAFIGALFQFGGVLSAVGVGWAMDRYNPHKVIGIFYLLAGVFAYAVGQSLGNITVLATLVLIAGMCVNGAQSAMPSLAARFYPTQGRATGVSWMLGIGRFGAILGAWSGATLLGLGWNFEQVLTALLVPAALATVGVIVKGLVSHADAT
Text: uptake-coupled PcaV-sfGFP biosensor dose response in P. putida KT2440 delta-pcaK on PcaKP.Put

PcaKB.Mas = test system: T9, PcaKB.Mas; assay: as above; type: cell-based, Bacillus massiliglaciei; conditions: whole-cell transporter-biosensor EC50 (reflects transporter plus PcaV sensor); LB, 3 h, 0.01-5 mM PCA
T9 construct: gene pcaK; full-length transporter expressed in Pseudomonas putida KT2440 delta-pcaK with PcaV-sfGFP reporter plasmid; 2,3-cleavage pathway operon
Text: uptake-coupled PcaV-sfGFP biosensor dose response in P. putida KT2440 delta-pcaK on PcaKB.Mas

PcaKN.Ani = molecular target: T10, PcaKN.Ani (Neisseria animalis, UniProt A0A5P3MSQ9); assay: as above; type: cell-based
T10 construct: gene D0T90_09335; full-length transporter expressed in Pseudomonas putida KT2440 delta-pcaK with PcaV-sfGFP reporter plasmid; 4,5-cleavage pathway operon
Text: uptake-coupled PcaV-sfGFP biosensor dose response in P. putida KT2440 delta-pcaK on PcaKN.Ani

PcakA.Ant = molecular target: T11, PcakA.Ant (Comamonas antarctica, UniProt A0A6N1X255); assay: as above; type: cell-based
T11 construct: gene HUK68_11000; full-length transporter expressed in Pseudomonas putida KT2440 delta-pcaK with PcaV-sfGFP reporter plasmid; 4,5-cleavage pathway operon
T11 sequence (A0A6N1X255 1-458): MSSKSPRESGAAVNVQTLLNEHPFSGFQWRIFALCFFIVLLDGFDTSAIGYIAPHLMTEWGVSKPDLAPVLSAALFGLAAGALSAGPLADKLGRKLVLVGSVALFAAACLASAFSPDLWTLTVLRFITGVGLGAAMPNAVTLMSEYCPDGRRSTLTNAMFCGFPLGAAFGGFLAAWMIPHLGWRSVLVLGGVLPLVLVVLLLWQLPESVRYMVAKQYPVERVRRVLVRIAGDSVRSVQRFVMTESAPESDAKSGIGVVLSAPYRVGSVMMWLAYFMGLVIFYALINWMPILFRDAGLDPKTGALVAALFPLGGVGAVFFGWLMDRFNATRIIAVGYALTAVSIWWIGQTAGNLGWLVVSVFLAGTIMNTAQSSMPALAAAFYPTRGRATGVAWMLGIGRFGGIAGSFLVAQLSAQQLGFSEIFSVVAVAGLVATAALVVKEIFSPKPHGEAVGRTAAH
Text: uptake-coupled PcaV-sfGFP biosensor dose response in P. putida KT2440 delta-pcaK on PcakA.Ant

T10 sequence (A0A5P3MSQ9 entry or part of it): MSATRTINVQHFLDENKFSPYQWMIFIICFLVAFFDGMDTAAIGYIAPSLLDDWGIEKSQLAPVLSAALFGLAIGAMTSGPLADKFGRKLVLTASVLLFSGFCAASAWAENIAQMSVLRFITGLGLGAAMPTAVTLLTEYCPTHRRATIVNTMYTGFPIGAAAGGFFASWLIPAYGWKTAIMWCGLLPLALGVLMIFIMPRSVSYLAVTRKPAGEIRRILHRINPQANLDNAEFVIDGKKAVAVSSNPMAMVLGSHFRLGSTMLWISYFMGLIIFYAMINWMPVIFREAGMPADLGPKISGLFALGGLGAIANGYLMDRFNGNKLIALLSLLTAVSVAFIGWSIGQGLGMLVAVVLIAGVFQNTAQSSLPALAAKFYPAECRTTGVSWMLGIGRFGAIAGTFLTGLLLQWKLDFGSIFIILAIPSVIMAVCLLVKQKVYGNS

Structure (SMILES)	EC50 (TphKS.Nap)	EC50 (TphKR.Pyr)	EC50 (TphKS.Hor)	EC50 (TphKP.Um)	EC50 (TphKR.Op)	EC50 (TphKP.Man)	EC50 (TphKB.Pac)	EC50 (PcaKP.Put)	EC50 (PcaKB.Mas)	EC50 (PcaKN.Ani)	EC50 (PcakA.Ant)
O=C(O)c1ccc(C(=O)O)cc1 [T3, terephthalic acid]	1.96 µM	10.7 µM	39.6 µM	19.1 µM	79.2 µM	14.4 µM	17.1 µM				
O=C(O)c1ccc(O)c(O)c1 [P2, protocatechuic acid]								2050 µM	1710 µM	847 µM	735 µM

Source: publication PMC12577307, “Genetically encoded biosensor enabled mining, characterisation and engineering of aromatic acid MFS transporters” (Journal of Biological Engineering, 2025)
